Like-named read-outs stand apart in the source and are kept apart here.
Key:
[1] = Uterine weight in ovariectomized rats; type: in vivo, rat; details: OVX rats; for uterine weight compared with control group: 200 μg/kg sc; for Uterine Weight (g, ± SEM): 200 μg/kg sc in corn oil, 2 hours prior to MCAO, harvested 24 hours after reperfusion
Experimental: Female, Sprague rats (200-250 g, Charles River, Wilmington, Mass.) were acclimatized for three days prior to surgery. Bilateral ovariectomy (OVX) was performed two weeks prior to middle cerebral artery occlusion (MCAO). Animals were anesthetized by intraperitoneal injection of ketamine (60 mg/kg) and xylazine (10 mg/kg). Rectal temperature was maintained at 37.5±0.5° C. during procedure. The middle cerebral artery was occluded for one hour then suture was withdrawn for reperfusion. […] Animals were decapitated 24 hours after reperfusion. Uteruses were harvested, blotted, and weighed for comparison among treatment groups.

[2] = biological target: T1, recombinant estrogen receptor β (ERβ) (Homo sapiens, UniProt Q92731); experiment: Competition binding assay, […] EFC Estrogen Chemiluminescence Assay
T1 construct: purchased Panvera, Madison, Wis
Experimental: (§1) Competition binding assays were performed using an enzyme fragment complementation (EFC) method described in the […] EFC Estrogen Chemiluminescence Assay kit (Fremont, Calif.). […] The enzyme acceptor was then added for another 1.5 hours after which chemiluminescence substrate was added for another hour. Relative luminescences were determined using a Biotek FL600 plate reader (Biotek Instruments, Winooski, Vt.).

[3] = biological target: T2, recombinant estrogen receptor α (ERα) (Homo sapiens, UniProt P03372); experiment: as above
T2 construct: purchased Panvera, Madison, Wis
T2 sequence (P03372 1-595): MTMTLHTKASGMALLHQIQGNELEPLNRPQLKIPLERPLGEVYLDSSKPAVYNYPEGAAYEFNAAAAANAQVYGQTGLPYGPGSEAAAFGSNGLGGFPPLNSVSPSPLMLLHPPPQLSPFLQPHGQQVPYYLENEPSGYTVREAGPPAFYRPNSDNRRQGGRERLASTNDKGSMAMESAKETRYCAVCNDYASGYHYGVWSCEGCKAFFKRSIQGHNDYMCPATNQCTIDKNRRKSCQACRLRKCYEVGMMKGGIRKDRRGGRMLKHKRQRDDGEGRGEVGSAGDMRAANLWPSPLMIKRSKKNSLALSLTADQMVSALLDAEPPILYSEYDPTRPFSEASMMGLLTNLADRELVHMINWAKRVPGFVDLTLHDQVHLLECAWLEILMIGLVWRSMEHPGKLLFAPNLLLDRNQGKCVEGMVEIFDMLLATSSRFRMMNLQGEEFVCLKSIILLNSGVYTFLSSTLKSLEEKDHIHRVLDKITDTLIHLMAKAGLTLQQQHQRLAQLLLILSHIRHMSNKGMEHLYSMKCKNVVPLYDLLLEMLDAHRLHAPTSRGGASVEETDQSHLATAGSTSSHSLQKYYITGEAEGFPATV
Experimental: as §1

[4] = In vitro reduction of estrone-quinol to estrone by reducing agents in phosphate buffer (LC/MS); type: in vitro ADME; details: for extent of reductive conversion: pH 7.5, 37° C.
Experimental: Estrone-quinol (0.1 mM) was incubated at 37° C. in 0.1 M phosphate buffer pH 7.5 in the presence of 1 mM of NADH, NADPH, sodium ascorbate, and glutathione (GSH). Aliquots (500 μl) were taken after 60 minutes of incubation, and extracted with ethyl acetate (3×0.5 mL) and the mixture vortexed for 1 minute and centrifuged at […] for 5 minutes. After removing the solvent, the residue of the combined organic extracts was analyzed for their estrone content by LC/MS/MS.
Mass spectra were recorded on a quadrupole ion-trap instrument (LCQ, ThermoFinnigan) using positive-ion APCI as the method of ionization. […] Compound identification was based on retention time (tR), APCI mass spectra, MS/MS and MS^3 with authentic compounds as references. […].
At incremental time points, […] aliquots were removed into ice-cooled centrifuge tubes, and 50 μl of glacial acetic acid was added. After immediate extraction with ethyl acetate (2×500 μl), the organic layer was evaporated under nitrogen stream at room temperature. Reconstitution of the samples with the LC mobile phase was followed by LC/MS analyses. For control, no reducing agents were used.
[…]. […] Kinetic analysis of the microsomal metabolism was done by nonlinear curve-fitting (Scientist for Windows; MicroMath, Inc., Salt Lake City, Utah) presuming consecutive first-order processes in the cascade of estrone-quinol→estrone→estrone-metabolites.

[5] = Cerebral microdialysis, reduction of estrone-quinol to estrone in vivo; set-up: species or system rat; details: probe perfused at 1 μl/min with 10 picomole/μL in aCSF, ventral hippocampus
Description: Male, Sprague rats (300-400 g) were anesthetized, placed in a stereotaxic instrument, and a guide cannula (CMA/12 guide cannula) was implanted into the ventral hippocampus under aseptic conditions. The guide cannula was fixed to the skull, together with stainless steel screws attached into additional two holes, with dental acrylics. Before starting the experiment (usually 5-7 days after the implantation of the guide cannula implantation) the rats were placed in a containment unit (BAS, Inc.) for at least 30 minutes. Then a microdialysis probe (CMA/12 polycarbonate membrane diameter 0.5 mm; membrane length 4 mm; molecular cut off: 5,000 Da) was inserted into the ventral hippocampus through the guide cannula. After insertion, the microdialysis probe was perfused with an artificial cerebrospinal fluid (aCSF) at a flow rate of 1 μl/min. maintained by a microperfusion pump (BAS BeeStinger) attached to the probe via polyethylene tubing and a liquid swivel. After equilibration for 50 minutes, an automatic refrigerated fraction collector (BAS HoneyComb) was used for continuous sampling of the probe efflux for 24 hours in 60 minute fractions collected into 300-μl glass vials (control). […]

T1 sequence (Q92731 whole entry): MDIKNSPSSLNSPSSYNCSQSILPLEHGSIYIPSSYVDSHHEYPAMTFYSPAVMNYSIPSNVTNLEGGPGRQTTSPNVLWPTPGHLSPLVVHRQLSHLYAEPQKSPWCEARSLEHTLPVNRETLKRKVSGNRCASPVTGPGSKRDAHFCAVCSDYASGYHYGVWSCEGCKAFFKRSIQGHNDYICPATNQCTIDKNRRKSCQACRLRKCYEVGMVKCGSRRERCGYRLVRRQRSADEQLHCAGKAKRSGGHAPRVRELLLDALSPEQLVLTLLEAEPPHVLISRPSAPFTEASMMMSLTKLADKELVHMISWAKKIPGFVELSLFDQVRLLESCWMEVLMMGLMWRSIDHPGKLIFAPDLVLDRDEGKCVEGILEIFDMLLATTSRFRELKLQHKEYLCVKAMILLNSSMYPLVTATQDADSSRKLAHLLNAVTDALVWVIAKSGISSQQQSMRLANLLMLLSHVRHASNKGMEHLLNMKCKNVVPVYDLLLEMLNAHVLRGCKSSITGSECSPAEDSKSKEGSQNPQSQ

SMILES | uterine weight compared with control group [1] | Uterine Weight (g, ± SEM) [1] | IC50 [2] | IC50 [3] | initial rate of second-order reaction for the reduction by NADPH ([4]; 10-fold excess of NADPH, microsome-free buffer solution, identical incubation conditions) | extent of reductive conversion ([4]; Example 4, 1.0 mM NADH) | extent of reductive conversion ([4]; Example 4, 1.0 mM NADPH) | flux of entry into the brain [5] | IC50 ([2]; ERβ, read-out: IC50) | IC50 ([3]; ERα, read-out: IC50)
C[C@]12CC[C@@H]3c4ccc(O)cc4CC[C@H]3[C@@H]1CCC2=O [E1, estrone, reference compound] | doubled | 0.222 ± 0.022 g | – | – | – | – | – | – | – | –
C[C@]12CC[C@H]3[C@@H](CCC4=CC(=O)C=C[C@@]43O)[C@@H]1CCC2=O [E1-quinol, 10β-hydroxyestra-1,4-diene-3,17-dione] | no difference | 0.115 ± 0.010 g | > 10 µM | > 10 µM | 0.62 ± 0.03 nmol/min | significant extent of reductive conversion | significant extent of reductive conversion | about 2 picomole/minute | – | –
C[C@]12CC[C@H]3[C@@H](CCC4=CC(=O)C=C[C@@]43O)[C@@H]1CC[C@@H]2O [E2-quinol] | – | – | – | – | – | – | – | – | > 10 µM | > 10 µM

Source: patent US7300926B2, “Steroidal quinols and their use for estrogen replacement therapy” (University of Florida Research Foundation, Inc., priority 2002, dated 2007)
